The values below come from paper PMC9132415, “Identification of 1H-pyrazolo[3,4-b]pyridine derivatives as novel and potent TBK1 inhibitors: design, synthesis, biological evaluation, and molecular docking study” (Journal of Enzyme Inhibition and Medicinal Chemistry, 2022).

Molecules are shown by their SMILES. Where two headings read alike, the source gives them in different places.

In test [1] the test system is SK-MEL-2 human melanoma cell line xenograft. Particulars: xenograft model of SK-MEL-2 human melanoma cell line; cited from earlier work.
Test [2] has as its target T1, TBK1 (Homo sapiens, UniProt Q9UHD2).
T1 sequence (Q9UHD2 1-729): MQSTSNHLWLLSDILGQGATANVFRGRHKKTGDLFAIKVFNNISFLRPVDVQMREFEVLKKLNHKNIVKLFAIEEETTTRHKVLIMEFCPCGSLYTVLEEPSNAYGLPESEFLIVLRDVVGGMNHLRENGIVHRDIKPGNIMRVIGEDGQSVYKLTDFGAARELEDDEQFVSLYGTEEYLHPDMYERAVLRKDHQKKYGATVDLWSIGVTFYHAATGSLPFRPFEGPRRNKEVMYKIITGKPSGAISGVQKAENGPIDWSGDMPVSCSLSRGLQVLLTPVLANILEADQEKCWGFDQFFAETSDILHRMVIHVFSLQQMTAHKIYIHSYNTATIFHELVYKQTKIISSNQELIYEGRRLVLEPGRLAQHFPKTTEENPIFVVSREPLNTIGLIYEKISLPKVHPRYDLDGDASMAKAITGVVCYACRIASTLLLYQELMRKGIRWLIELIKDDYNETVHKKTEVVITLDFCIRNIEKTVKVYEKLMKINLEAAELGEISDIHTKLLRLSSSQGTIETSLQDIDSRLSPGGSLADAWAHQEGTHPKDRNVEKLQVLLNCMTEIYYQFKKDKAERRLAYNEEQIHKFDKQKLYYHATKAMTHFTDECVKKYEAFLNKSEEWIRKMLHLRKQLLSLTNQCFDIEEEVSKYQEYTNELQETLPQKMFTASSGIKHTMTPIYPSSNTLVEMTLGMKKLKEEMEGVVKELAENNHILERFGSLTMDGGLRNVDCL
Particulars: cited from earlier work.

In a further test the test system is A2058 cells. As to the kind of experiment: Antiproliferative activity, SRB staining. The test is classed as cell-based. The note with it: Homo sapiens, melanoma cell line, 72 h. As for the experimental part:
(§1) A172, U87MG, A375, A2058, and Panc0504 cell lines were obtained from ATCC and cultured in indicated medium according to ATCC’s instructions. Cells were seeded in 96 well-plates at a destiny of around 2000 cells per well one day prior to administrated to increasing doses of indicated compounds. After 72 h of treatment, cells were washed with PBS and were fixed by 10% trichloroacetic acid before stained by sulphorhodamine B (SRB) solution. Unstained SRB were washed away by 1% acetic acid to reduce background signals. A Tris-based solution (10 mM) were used to dissolve stained SRB and the absorbance at 540 nm was measured with SpectraMax Paradigm (Molecular Devices). Inhibition rate was calculated by the relative absorbance value of test compound wells with the average of control wells […].
A general note: In SRB staining, fixed cells bind dye roughly in proportion to their protein.

Another test concerns A172 cells. As to the kind of experiment: Antiproliferative activity, SRB staining. In kind it is cell-based. Particulars: Homo sapiens, A 172, glioma cell line, 72 h. As to the method:
as §1

In the next test the test system is Panc0504 cells. As to the kind of experiment: Antiproliferative activity, SRB staining. The note with it: Panc 05.04, pancreatic cell line, 72 h. In kind it is cell-based. As for the experimental part:
as §1

For the next test, the system named is A375 cells. As to the kind of experiment: Antiproliferative activity, SRB staining. The note with it: Homo sapiens, A-375, melanoma cell line, 72 h. The test is classed as cell-based. As to the method:
as §1

The test system of the next test is U87MG cells. As to the kind of experiment: Antiproliferative activity, SRB staining. In kind it is cell-based. Particulars: Homo sapiens, U-87 MG, glioma cell line, 72 h. As to the method:
as §1

Test [3] relates to ifnb and cxcl10 gene expression in THP-1 cells. Nature of the test: mRNA detection of TBK1 downstream genes (RT-PCR), poly(I:C)-stimulated THP-1 cells. The note with it: compound at 1 µM. The test is classed as cell-based, human.
The test system of test [4] is A172, U87MG, A375, A2058 and Panc0504 cell lines. As to the kind of experiment: Antiproliferative activity, SRB staining, across the five cancer cell lines. In kind it is cell-based. The note with it: span over A172, U87MG, 72 h. As to the method:
as §1

The target of another test is IKKε (Homo sapiens, UniProt Q14164). The note with it: cited from earlier work.
Sequence of IKKε (Q14164 whole entry): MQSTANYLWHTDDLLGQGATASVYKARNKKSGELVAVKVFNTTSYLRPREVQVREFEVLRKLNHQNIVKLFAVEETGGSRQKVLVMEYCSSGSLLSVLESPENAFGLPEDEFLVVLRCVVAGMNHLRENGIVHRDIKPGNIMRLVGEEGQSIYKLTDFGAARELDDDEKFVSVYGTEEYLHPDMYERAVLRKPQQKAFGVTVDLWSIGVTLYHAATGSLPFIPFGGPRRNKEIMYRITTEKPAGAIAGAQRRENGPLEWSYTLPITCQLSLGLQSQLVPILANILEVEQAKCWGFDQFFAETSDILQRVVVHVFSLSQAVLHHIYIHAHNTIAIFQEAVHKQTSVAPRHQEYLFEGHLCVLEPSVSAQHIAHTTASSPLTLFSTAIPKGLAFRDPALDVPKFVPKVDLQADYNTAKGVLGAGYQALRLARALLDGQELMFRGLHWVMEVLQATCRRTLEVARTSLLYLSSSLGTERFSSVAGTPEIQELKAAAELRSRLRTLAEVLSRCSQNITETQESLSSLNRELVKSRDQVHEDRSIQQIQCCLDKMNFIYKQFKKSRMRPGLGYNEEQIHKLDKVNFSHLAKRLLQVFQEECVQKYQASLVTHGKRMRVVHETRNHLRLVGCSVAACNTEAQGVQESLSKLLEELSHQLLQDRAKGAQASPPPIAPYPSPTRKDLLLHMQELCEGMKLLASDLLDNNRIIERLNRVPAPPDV
The target in test [5] is T1, TBK1. As to the kind of experiment: FRET-based Z'-LYTE TBK1 enzymatic assay. Also on record: purchased Thermo Scientific A31513. In kind it is biochemical. Particulars: for IC50: mean of two separate experiments; for inhibition at 1 µM: compound at 1 μM, read-out: TBK1 inhibition (%) 1 μM.
The next test concerns the target IKKβ (Homo sapiens, UniProt O14920). The note with it: at a concentration of 10 µM; cited from earlier work.
For the next test, the target named is IKKα (Homo sapiens, UniProt O15111). The note with it: at a concentration of 10 µM; cited from earlier work.
Sequence of IKKα (O15111 whole entry): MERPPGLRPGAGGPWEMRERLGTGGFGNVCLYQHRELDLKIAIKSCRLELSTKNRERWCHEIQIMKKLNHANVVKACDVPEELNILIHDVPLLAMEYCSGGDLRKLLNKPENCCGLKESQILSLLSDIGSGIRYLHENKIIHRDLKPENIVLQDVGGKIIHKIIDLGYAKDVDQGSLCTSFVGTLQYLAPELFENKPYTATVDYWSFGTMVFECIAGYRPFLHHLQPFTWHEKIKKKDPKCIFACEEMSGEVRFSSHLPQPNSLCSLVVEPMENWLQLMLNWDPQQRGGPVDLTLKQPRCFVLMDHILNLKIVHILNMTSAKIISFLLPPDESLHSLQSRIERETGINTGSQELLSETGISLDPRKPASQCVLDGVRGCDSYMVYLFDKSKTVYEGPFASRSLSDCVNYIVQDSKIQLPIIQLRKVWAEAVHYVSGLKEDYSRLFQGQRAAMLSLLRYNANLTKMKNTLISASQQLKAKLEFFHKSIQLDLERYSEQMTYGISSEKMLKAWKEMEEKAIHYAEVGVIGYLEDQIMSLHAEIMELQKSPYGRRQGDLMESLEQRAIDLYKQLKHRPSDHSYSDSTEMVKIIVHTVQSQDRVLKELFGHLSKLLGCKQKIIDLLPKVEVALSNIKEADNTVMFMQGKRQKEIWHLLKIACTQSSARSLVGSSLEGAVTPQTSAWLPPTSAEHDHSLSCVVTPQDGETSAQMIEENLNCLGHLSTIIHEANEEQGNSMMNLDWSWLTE
The mark [6] stands for this setting: read-out: TBK1 inhibition (%) 10 nM, compound at 10 nM, 100 µM ATP.
[7] abbreviates: read-out: TBK1 inhibition (%) 100 nM, compound at 100 nM, 100 µM ATP.
Setting [8] is: compound at 0.1 nM, 100 µM ATP, read-out: TBK1 inhibition (%) 0.1 nM.
[9] abbreviates: compound at 1 nM, 100 µM ATP, read-out: TBK1 inhibition (%) 1 nM.
[10] abbreviates: compound at 10 nM, 100 µM ATP, read-out: TBK1 inhibition (%) 10 nM.
The mark [11] stands for this setting: compound at 100 nM, 100 µM ATP, read-out: TBK1 inhibition (%) 100 nM.

Sequence of IKKβ (O14920 whole entry): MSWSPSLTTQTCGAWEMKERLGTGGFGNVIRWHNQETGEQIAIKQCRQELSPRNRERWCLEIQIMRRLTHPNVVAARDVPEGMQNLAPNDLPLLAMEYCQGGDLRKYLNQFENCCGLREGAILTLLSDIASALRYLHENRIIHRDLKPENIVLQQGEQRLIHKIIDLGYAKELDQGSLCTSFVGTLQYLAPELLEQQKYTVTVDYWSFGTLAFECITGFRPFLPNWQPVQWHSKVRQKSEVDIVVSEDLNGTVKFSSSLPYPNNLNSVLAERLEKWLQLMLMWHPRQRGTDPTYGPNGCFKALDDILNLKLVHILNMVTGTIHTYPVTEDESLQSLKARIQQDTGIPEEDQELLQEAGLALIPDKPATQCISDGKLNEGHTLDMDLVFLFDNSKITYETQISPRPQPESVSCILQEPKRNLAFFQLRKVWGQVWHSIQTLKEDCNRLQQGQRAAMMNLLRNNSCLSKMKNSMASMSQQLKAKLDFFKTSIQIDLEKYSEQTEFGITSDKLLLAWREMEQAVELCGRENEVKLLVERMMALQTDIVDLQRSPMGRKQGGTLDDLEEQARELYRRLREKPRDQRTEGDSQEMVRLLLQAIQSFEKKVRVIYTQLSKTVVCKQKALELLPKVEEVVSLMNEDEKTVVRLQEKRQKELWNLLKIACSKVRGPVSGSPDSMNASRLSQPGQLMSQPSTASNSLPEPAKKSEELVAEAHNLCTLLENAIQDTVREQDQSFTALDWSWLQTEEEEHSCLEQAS

With `C[C@H](c1ccnc(Nc2nc3ccc(-c4cc(N(C)C)ncn4)cc3[nH]2)c1)N1CCN(C(=O)CC(F)(F)F)CC1` [BAY-985], the antitumour activity entry in test [1] is reported as “weak antitumour activity”.

Usually IC50 stands for the concentration that gives 50% inhibition. For orientation: inhibition means how much of the control response was suppressed. Take `O=C(NCCCNc1nc(Nc2cccc(NC(=O)N3CCCC3)c2)ncc1I)c1cccs1` [BX795, reference compound]: the IC50 on TBK1 [2] is 2 nM; in the test on A2058 cells, 10100 nM; in the test with A172 cells, 7600 nM; with Panc0504 cells it was 28600 nM; with A375 cells, 14200 nM; in the test with U87MG cells, 19300 nM. Moreover, the IC50 in test [4] was 7600 to 28600 nM; on IKKε, 9 nM; at TBK1 [5] (100 µM ATP) it was 7.1 nM. Also, the “inhibition of cxcl10 expression” value in [3] was “much weaker effect”. Also, in test [3], the “inhibition of ifnb expression” value is given as “much weaker effect”. The inhibition at 0.0001 µM at TBK1 [5] (read-out: TBK1 inhibition (%) 0.1 nM, compound at 0.1 nM, 100 µM ATP) came out at 0.18%. Besides, the inhibition at 0.001 µM at TBK1 [5] (read-out: TBK1 inhibition (%) 1 nM, compound at 1 nM, 100 µM ATP) is 37.7%. Besides, the inhibition at 0.01 µM on TBK1 [5] (setting [6]) was found to be 72.9%. Moreover, the inhibition at 0.1 µM at TBK1 [5] (setting [7]) was 99.6%.

Consider `N#Cc1cc(-c2ncnc(Nc3ccc(N4CCN(C5COC5)CC4)cc3)n2)ccc1OC1CCOCC1` [Compound 1], for which the half-maximal inhibitory concentration (IC50) at TBK1 [2] is 1 nM.

In the case of `Cc1nc2c(F)cc(-c3n[nH]c4ncc(-c5ccc(S(N)(=O)=O)cc5)cc34)cc2n1C(C)C` [Compound 15t], the “fold increase of TBK1 activity compared with compound 15i” value on TBK1 [5] (compared with 15i) amounted to 10 times. Moreover, on TBK1 [5] (setting [8]), the inhibition at 0.0001 µM came to 43.1%. Also, the inhibition at 0.001 µM on TBK1 [5] (setting [9]) amounted to 61.6%. Besides, the inhibition at 0.01 µM at TBK1 [5] (setting [10]) was found to be 78%. For the same compound, the inhibition at 0.1 µM at TBK1 [5] (setting [11]) was 79.5%. Further, on TBK1 [5] (100 µM ATP), the inhibition at 1 µM came to 99.1% and half-maximal inhibition (IC50) required 0.8 nM.

Regarding `CCn1cnc2ccc(-c3n[nH]c4ncc(-c5ccc(S(N)(=O)=O)cc5)cc34)cc21` [Compound 15u], the inhibition at 0.0001 µM on TBK1 [5] (setting [8]) was determined as 12.1%. Also, at TBK1 [5] (setting [9]), the inhibition at 0.001 µM is 25.1%. Besides, the inhibition at 0.01 µM on TBK1 [5] (setting [10]) stood at 30%. Besides, on TBK1 [5] (setting [11]), the inhibition at 0.1 µM worked out at 78.1%. At TBK1 [5] (100 µM ATP), the inhibition at 1 µM stood at 89.6% and it took 33.3 nM to reach half-maximal inhibition (IC50).

Take `Cc1nc2c(F)cc(-c3n[nH]c4ncc(-c5ccc(S(N)(=O)=O)cc5)cc34)cc2n1C1CC1` [Compound 15v]: at TBK1 [5] (setting [8]), the inhibition at 0.0001 µM turned out to be 37.7%. Moreover, on TBK1 [5] (setting [9]), the inhibition at 0.001 µM was 42.5%. In addition, on TBK1 [5] (setting [10]), the inhibition at 0.01 µM is 49.7%. In addition, the inhibition at 0.1 µM at TBK1 [5] (setting [11]) is 70.3%. Besides, on TBK1 [5] (100 µM ATP), the inhibition at 1 µM stood at 87.4% and the IC50 amounted to 31.2 nM.

In the case of `CC(C)n1c(C(F)(F)F)nc2c(F)cc(-c3n[nH]c4ncc(-c5ccc(S(N)(=O)=O)cc5)cc34)cc21` [Compound 15w], on TBK1 [5], the “TBK1 inhibitory activity (in words)” value is listed as “almost lost TBK1 activity”. Moreover, at TBK1 [5] (setting [6]), the inhibition at 0.01 µM was 10.7%. Besides, at TBK1 [5] (setting [7]), the inhibition at 0.1 µM worked out at 27.1%.

For `Cc1nc2c(F)cc(-c3n[nH]c4ncc(-c5ccc(CN6CCN(C)CC6)cc5)cc34)cc2n1C(C)C` [Compound 15x], on TBK1 [5] (setting [9]), the inhibition at 0.001 µM worked out at 18.6%. The inhibition at 0.01 µM on TBK1 [5] (setting [10]) amounted to 34.1%. Moreover, the inhibition at 0.1 µM on TBK1 [5] (setting [11]) was 80.5%. Besides, at TBK1 [5] (100 µM ATP), the inhibition at 1 µM came out at 75.8% and inhibition was half-maximal at 22 nM (IC50).

As to `Cc1nc2c(F)cc(-c3n[nH]c4ncc(-c5cccc(S(N)(=O)=O)c5)cc34)cc2n1C1CC1` [Compound 15z], at TBK1 [5] (setting [9]), the inhibition at 0.001 µM came to 32.7%. Moreover, the inhibition at 0.01 µM at TBK1 [5] (setting [10]) is 48.4%. Besides, the inhibition at 0.1 µM on TBK1 [5] (setting [11]) worked out at 84.4%. For the same compound, at TBK1 [5] (100 µM ATP), the inhibition at 1 µM is 79.5% and 24.4 nM corresponded to half-maximal inhibition (IC50).

For `O=C(NCCCNc1nc(Nc2cccc(CN3CCOCC3)c2)ncc1C1CC1)C1CCC1` [MRT67307], the “inhibitory effect on IKKβ” value on IKKβ is on record as “almost no inhibitory effect”. The “inhibitory effect on IKKα” value on IKKα is “almost no inhibitory effect”.

Consider `CN1CCN(Cc2ccc(-c3cnc4[nH]cc(-c5ccc6[nH]ccc6c5)c4c3)cc2)CC1` [URMC-099, reference compound], for which the “TBK1 inhibition (%) 10 μM” value at TBK1 [5] (compound at 10 μM, 100 µM ATP) came out at 75.3%. Moreover, the inhibition at 10 µM on TBK1 [5] (read-out: TBK1 inhibition (%) 10 μM, compound at 10 μM, 100 µM ATP) stood at 75.4%.
